Measurements from patent publication US20230346831A1, “METHODS FOR TREATING […] USING LOW DOSE CARBON MONOXIDE” (priority 2020, published 2023).
“Also recorded” adds a separate entry of the source.

Columns and labels:
[1] = system: non-malignant BJ fibroblasts; test: in vitro transwell migration assay; type: cell-based; conditions: 250 ppm CO
Description: Migration of different cancer cells under control air or 250 ppm CO treatment with or without supplement of 30 µM hemin was determined using in vitro transwell migration chamber with a serum gradient. Indicated cell lines were seeded into the transwell inserts. 16 hours later, cells on the top of the upper chambers were removed, and cells on the bottom surface of the transwell inserts were fixed, stained with crystal violet, and counted from eight randomly picked fields in three independent experiments. Error bars represent SEM. *: P < 0.05, two-sided t-test. Scale bar, 100 µm. […] Cells were seeded in the upper chamber of 8-µm porous polycarbonate membranes with DMEM containing 0% or 1% FBS, 0.2 mM L-glutamine, 1% penicillin/streptomycin. The lower chambers were filled with DMEM containing 10% or 20% FBS, 0.2 mM L-glutamine, and 1% penicillin/streptomycin (please see Table 1).
(§1) 6.5 mm Transwell with 8.0 µm Pore Polycarbonate Membrane Insert (Corning, NY, Cat. No. 3422) was used for the cell migration assay (FIG. 1J). After 16 hours of incubation, cells migrated to the opposite side of the upper chambers were fixed with 4% paraformaldehyde, stained with 0.2% crystal violet for 30 min and counted in five fields under × 20 magnification. In parallel, cells were seeded on 24-well plates for proliferation assay. […] The optical density was measured at 595 nm (OD595). […]

[2] = system: cancer cells across different cancer types; test: in vitro transwell migration assay, statements across cancer types; type: cell-based, human; conditions: 16 hours
Description: Migration of different cancer cells under control air or 250 ppm CO treatment with or without supplement of 30 µM hemin was determined using in vitro transwell migration chamber with a serum gradient. Indicated cell lines were seeded into the transwell inserts. 16 hours later, cells on the top of the upper chambers were removed, and cells on the bottom surface of the transwell inserts were fixed, stained with crystal violet, and counted from eight randomly picked fields in three independent experiments. Error bars represent SEM. *: P < 0.05, two-sided t-test. Scale bar, 100 µm. […]
as §1, with “magnification.” for “magnification. In parallel, cells were seeded on 24-well plates for proliferation assay.”
To investigate whether 250 ppm CO induces hypoxia, HiF1α protein levels in low-dose CO-treated MCF7/TGL and MDA-MB-231/TGL cells were examined. […] To assess the intracellular heme levels affected by low-dose CO treatment, oxidized heme levels in the form of hemin (Fe^3+ state) were measured because free heme (Fe^2+ state) is readily oxidized and cannot be measured. […]

[3] = system: 8988T/TGL cells; test: orthotopic (intrasplenic) model of liver metastasis of PDAC; type: in vivo; conditions: 8988T/TGL cells intrasplenic, NSG mice, 5 days a week
Description: NSG mice were generated by the Jackson Laboratory. All mice were housed in accordance with the institutional guidelines. […] Zhang, & Y. N. Du, Methods Mol Biol 1882, 309-320 (2019)). The spleen was removed after the injection. Starting one day after injection, mice were randomized into two groups. One group was kept in a regular mouse holding room (control), and the other group was put into a chamber delivering 250 ppm CO 3 hours daily. Mice were subjected to bioluminescent imaging using the In Vivo Imaging System Spectrum (PerkinElmer, Waltham, MA) at 0, 1, 3 days and then weekly after tumor cells were injected until the final time points, as described previously by Y. C. Du, D. S. Klimstra, & H. Varmus, PLoS One 4, e6932 (2009)). Luciferase signals were transformed to nature log scale before analysis. GEE method was used to test the overall difference of tumor growth over time. All analyses were performed in statistical software SAS Version 9.4 (SAS Institute, Cary, NC).
Mouse tissues were removed and fixed in 10% buffered formalin overnight at room temperature. […] Tumor number and tumor size were quantified by scanning the whole tissue slide of each mouse under microscope. The size of tumor area of each tumor was measured by the cellSens imaging software (Olympus, Tokyo, Japan). […]

Molecule | migration [1] | cancer cell migration across different cancer types ([2]; 250 ppm CO, transwell with serum gradient, vs control air) | metastatic tumor numbers in liver sections (histological analysis) ([3]; 250 ppm CO 3 hours daily, 19 days after the injection) | bioluminescence over the time course, control vs CO group ([3]; 250 ppm CO gas 3 hours daily, P < 0.0001, GEE method) | cell migration inhibited by CO (rescue by hemin supplement) ([2]; 30 µM hemin + 250 ppm CO, transwell, cell lines not named at the place (FIGS. 1A-1I; 1C-1E))
[C-]#[O+] [CO, Carbon monoxide] | only slightly reduced | decreases | significantly less | Significant difference | 
Hemin [reference compound] |  |  |  |  | partially restored; also recorded: rescued
